Common to all, as to format: cell-based
Assay [1] deals with Escherichia coli ATCC 25922. Nature of the assay: MIC test in 96 well plates (broth dilution, turbidity). The note with it: ATCC25922, average of three replicates, MH broth, sample in ethanol, 37° C. overnight, read-out: Minimal inhibitory concentration (ppm) Escherichia coli ATCC 25922. A general note: In broth dilution the organism is exposed to a series of concentrations in liquid medium.

Assay [2] has as its system Cutibacterium acnes DSM 1897. Nature of the assay: MIC test in 96 well plates (broth dilution, turbidity), anaerobic strain. The conditions noted are these: DSM1897, average of three replicates, WC broth, sample in DMSO, read-out: Minimal inhibitory concentration (ppm) Cutibacterium acnes DSM 1897.
The test system of assay [3] is Staphylococcus aureus ATCC 6538. Description: MIC test in 96 well plates (broth dilution, turbidity). The conditions noted are these: ATCC6538, average of three replicates, MH broth, sample in ethanol, 37° C. overnight, read-out: Minimal inhibitory concentration (ppm) Staphylococcus aureus ATCC 6538.
Assay [4] relates to Corynebacterium tuberculostearicum C1. Described as above. The conditions noted are these: average of three replicates, BHI-TW80 broth, sample in DMSO, read-out: Minimal inhibitory concentration (ppm) Corynebacterium tuberculostearicum C1. As for the experimental part:
Bacterial suspension of the Corynebacterium tuberculostearicum C1 strain was prepared as follows: Stock culture (stored at −80° C.) was subcultured onto tryptic soy agar plates with 0.5% Tween 80 (TSA-TW80), and subsequently incubated at 37 °C for 48 h. The primary cultures were subcultured again onto TSA-TW80 to prepare the secondary cultures. One single colony of the secondary culture was then selected and used to inoculate 50 ml brain heart infusion broth with 0.5% Tween 80 (BHI-TW80). The inoculated broth was incubated at 37° C. and 180 rpm overnight. Aliquots (2 mL) of the overnight culture were inoculated into 50 ml of fresh BHI-TW80 broth media, and incubated at 37° C., 160 rpm. When the OD600 nm reached the target value of 4.0, cells were harvested by centrifugation at 5000 rpm for 10 min, and then resuspended in the fresh BHI-TW80 broth media at the same volume before the centrifugation. Aliquots (1 ml) of each cell suspension were diluted in 200 ml of fresh BHI-TW80 broth media as the bacterial solutions for the MIC test.
Sample solutions of test materials and reference material were prepared in ethanol for MIC test for E. coli and S. aureus strains or in DMSO for C. tuberculostearicum and C. acnes strains. In brief, stock solutions of 1% and 20% were prepared in each solvent, and then seven serial dilutions of each stock solution were prepared in each solvent to obtain a total of 16 solutions of the test material or the reference material. Aliquot (10 μl) of each solution was used for MIC test. The tested final concentrations of each material were 29, 44, 66, 99, 148, 222, 333, 500, 590, 900, 1300, 2000, 3000, 4500, 6700, 10000 ppm.
MIC test were performed in 96 well plates. […] Column 1 contained bacterial solution only (the positive growth control), and column 12 contained growth media only (the negative growth control). […]
Minimal inhibitory concentration (MIC) was determined as the lowest concentration where no growth was observed. Average MIC value of the three replicates was calculated against each strain.

For assay [5], the system named is Escherichia coli DSM 787. Described as above. The conditions noted are these: DSM787, average of three replicates, MH broth, sample in ethanol, 37° C. overnight, read-out: Minimal inhibitory concentration (ppm) Escherichia coli DSM 787.

≈ marks a conversion by molar mass, not a printed value.

Regarding `CCC=C(C)C(O)C(C)CC` (stereo not drawn) [3,5-dimethyl-5-octen-4-ol], the MIC is 3500 µg/mL (≈ 22400 µM) in assay [1], 1770 µg/mL (≈ 11300 µM) in assay [2], 1530 µg/mL (≈ 9810 µM) in assay [3] and 2670 µg/mL (≈ 17100 µM) in assay [4].
Regarding `CC(O)CC(C)CCc1ccccc1` (stereo not drawn) [4-methyl-6-phenyl-2-hexanol], the MIC was more than 10000 µg/mL in assay [1], 148 µg/mL (≈ 770 µM) in assay [2], 173 µg/mL (≈ 900 µM) in assay [3] and 1300 µg/mL (≈ 6760 µM) in assay [4].
On to `CC(CCO)CCc1ccccc1` (stereo not drawn) [3-methyl-5-phenyl-1-pentanol], for which the MIC in assay [5] was 360 µg/mL (≈ 2020 µM); in assay [2] it was 259 µg/mL (≈ 1450 µM); in assay [3] it was 185 µg/mL (≈ 1040 µM); in assay [4], 200 µg/mL (≈ 1120 µM).

The record behind these values is patent US20240164373A1, “ANTIMICROBIAL PERFUMING CONSUMER PRODUCTS” (Firmenich SA, priority 2021, published 2024).
